# ChEMBL document CHEMBL1142701, “CHMIS-C: a comprehensive herbal medicine information system for cancer” (2005)
# Test system: Panel NCI-60 (60 carcinoma cell lines)
# Experiment: Growth inhibitory activity against human cancer cell line in the NCI's anticancer drug screening program
# Assay type: functional
row,Structure (SMILES),GI50 [nM]
1,CC(=O)O[C@H]1C(=O)[C@@]2(C)[C@H]([C@H](OC(=O)c3ccccc3)[C@]3(O)C[C@H](OC(=O)[C@H](O)[C@@H](NC(=O)c4ccccc4)c4ccccc4)C(C)=C1C3(C)C)[C@]1(OC(C)=O)CO[C@@H]1C[C@@H]2O [PACLITAXEL],0.1
2,C[C@H]1[C@H](C)CC[C@]2(C(=O)O)CC[C@]3(C)C(=CCC4[C@@]5(C)CC[C@H](O)C(C)(C)C5CC[C@]43C)[C@H]12 (stereo not given in full),10
3,COc1ccc2cc1Oc1ccc(cc1)C[C@@H]1c3cc(c(OC)cc3CCN1C)Oc1c(OC)c(OC)cc3c1[C@H](C2)N(C)CC3 [ISOTETRANDRINE],10
4,COc1cc2c(c(OC)c1OC)-c1ccc(OC)c(=O)cc1[C@@H](NC(C)=O)CC2 [COLCHICINE],1.7
5,C[C@]12CC[C@H]3[C@@H](CC[C@@]4(O)C[C@@H](O)CC[C@]34C=O)[C@]1(O)CC[C@@H]2C1=CC(=O)OC1,94
6,COc1cccc2c1cc([N+](=O)[O-])c1c(C(=O)O)cc3c(c12)OCO3 [ARISTOLOCHIC ACID],883
7,CC(C=CC=C(C)/C=C/C1=C(C)CCCC1(C)C)=CCO [RETINOL],28
8,COC(=O)C[C@](O)(CCCC(C)(C)O)C(=O)O[C@@H]1C(OC)=C[C@]23CCCN2CCc2cc4c(cc2[C@H]13)OCO4 [OMACETAXINE MEPESUCCINATE],4.4
9,COC(=O)C(O)C(O)(CCC(C)C)C(=O)OC1C(OC)=CC23CCCN2CCc2cc4c(cc2C13)OCO4 (stereo not given) [OHARRINGTONINE],10
10,CC[C@@]1(O)C(=O)OCc2c1cc1n(c2=O)Cc2cc3ccccc3nc2-1 [CAMPTOTHECIN],10
11,C=C(CC[C@@H](C(=O)O)[C@H]1CC[C@@]2(C)C3=C(CC[C@]12C)[C@@]1(C)CC[C@H](O)C(C)(C)[C@@H]1CC3)C(C)C [EBURICOIC ACID],10000
12,COc1ccc2c(c[n+](C)c3c4cc5c(cc4ccc23)OCO5)c1OC [CHELERYTHRINE CHLORIDE],188
13,COc1ccc2c(c1O)-c1c(OC)c(OC)cc3c1C(C2)[N+](C)(C)CC3 (stereo not given) [MENISPERINE],41
14,CO[C@H]1C[C@H](O[C@H]2CC[C@]3(C=O)[C@H]4CC[C@]5(C)[C@@H](C6=CC(=O)OC6)CC[C@]5(O)[C@@H]4CC[C@]3(O)C2)O[C@H](C)[C@H]1O [CYMARIN],39
15,COc1cc([C@@H]2c3cc4c(cc3[C@H](O)[C@H]3COC(=O)[C@H]23)OCO4)cc(OC)c1OC [PODOFILOX],10
16,C=C1C(=O)[C@]23[C@H](O)[C@H]1CC[C@H]2[C@@]12CO[C@]3(O)[C@@H](O)[C@@H]1C(C)(C)CC[C@@H]2O [ORIDONIN],453
17,COc1cc2c[n+](C)c3c4cc5c(cc4ccc3c2cc1OC)OCO5 [NITIDINE CHLORIDE],125
18,c1c2c(cc3c1OCO3)-c1cc3ccc4c(c3c[n+]1CC2)OCO4 [COPTISINE],260
19,CC(C)(O)/C=C/C(=O)[C@](C)(O)[C@@H]1C2CC(=O)[C@@]3(C)[C@@H]4C[C@H](O)C(=O)C(C)(C)C4=CC[C@H]3[C@]2(C)C[C@H]1O (stereo not given in full) [ELATERICIN],23
20,O=c1oc2c(O)c(O)cc3c(=O)oc4c(O)c(O)cc1c4c23 [ELLAGIC ACID],10
21,COc1ccc2cc1Oc1ccc(cc1)C[C@H]1c3cc(c(OC)cc3CCN1C)Oc1c(OC)c(OC)cc3c1[C@H](C2)N(C)CC3 [FANCHININ],10
22,CN1Cc2c(ccc3c2OCO3)C2C(O)Cc3cc4c(cc3C21)OCO4 (stereo not drawn) [CHELIDONINE (+)],433
23,COc1c2cc3c(c1OC)CCN(C)[C@@H]3Cc1ccc(cc1)Oc1cc3c(c(OC)c1OC)CCN(C)[C@@H]3Cc1ccc(cc1)O2 [CYCLEANINE],17
24,Cc1cc(O)c2c(c1)C(=O)c1cc(O)cc(O)c1C2=O [EMODIN],10000
25,CC(C)c1oc(=O)cc2c1C(O)C1OC(=O)C3(C)C(O)C4OC4C2(C)C13 (stereo not given) [NAGILACTONE],363
26,CC(=O)OC(C)(C)/C=C/C(=O)C(C)(O)C1C(O)CC2(C)C3CC=C4C(C[C@@H](O)C(=O)C4(C)C)C3(C)C(=O)CC12C (stereo not given in full) [AMARIN],10
27,CCCCCCCC/C=C\CCCCCCCC(=O)O [OLEIC ACID],10000
28,O=C1N[C@@H]2C(=C[C@H](O)[C@@H](O)[C@H]2O)c2cc3c(c(O)c21)OCO3 [NARCICLASINE],45
29,COC(=O)CC(O)(CCC(C)(C)O)C(=O)OC1C(OC)=CC23CCCN2CCc2cc4c(cc2C13)OCO4 (stereo not given),10
30,O=c1cc(-c2ccc(O)cc2)oc2cc(O[C@@H]3O[C@H](CO)[C@@H](O)[C@H](O)[C@H]3O)cc(O)c12 [APIGETRIN],76
